This note sets out measurements from patent US9708314B2, “Heterocyclic amide compound” (NISSAN CHEMICAL INDUSTRIES, LTD., priority 2013, dated 2017).

Assay type in all cases: in vivo
One assay has as its system Monochoria vaginalis. The experiment in a line: Test Example 1: herbicidal activity, application before weed generation in submerged conditions. The conditions noted are these: Seventeenth Table; for C: Monochoria vaginalis (herbicidal effect grade): Application herbicide amount 320 g/ha; for C (Monochoria vaginalis) herbicidal ratio grade: application herbicide amount 320 g/ha. Put shortly:
(§1)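 Pre-emergence water-surface application under 4 cm flooding, same day as sowing, with rice transplanted at 2.5 leaf stage. Dose given as g/ha. Plants grown at 25° C. to 30° C. and rated three weeks later on a 0 (≤5%) to 5 (≥90%) herbicidal-ratio scale.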

Assay [1] relates to Echinochloa oryzacola Vasing. The description is as above. The following applies: Seventeenth Table; for A: Echinochloa oryzicola Vasing. (herbicidal effect grade): Application herbicide amount 320 g/ha; for A (Echinochloa oryzicola Vasing.) herbicidal ratio grade: application herbicide amount 320 g/ha. In outline: as §1
The next assay has as its system Scirpus juncoides. The assay is described as above. The conditions noted are these: Seventeenth Table; for B: Scirpus juncoides (herbicidal effect grade): Application herbicide amount 320 g/ha; for B (Scirpus juncoides) herbicidal ratio grade: application herbicide amount 320 g/ha. In outline:
as §1

A further assay deals with Leptochloa chinensis. The experiment in a line: Test Example 3: herbicidal effect by application to foliage (Wagner pot, water depth 0.1-0.5 cm). The following applies: Nineteenth Table; application to foliage; application herbicide amount 320 g/ha. Put shortly: (§2)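 Alluvial soil in 1/10000 are Wagner pots, sown and grown 14 days in a 25–30 °C greenhouse. An emulsifiable concentrate diluted in water to the set dose (g/ha) was sprayed on stems and leaves. Effect scored three weeks later on a 0–5 scale: 5 = ≥90% herbicidal ratio, 0 = ≤5%.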

Another assay has as its system Cyperus difformis. The description is as above. The conditions noted are these: Nineteenth Table; application to foliage; application herbicide amount 320 g/ha. In outline: as §2
Assay [2] concerns Echinochloa crus-galli var. crus-galli. The description is as above. The conditions noted are these: Nineteenth Table; application to foliage; application herbicide amount 320 g/ha. Put shortly: as §2

For `CC(c1nnc2c(C(=O)Nc3nnnn3C)ccc(C(F)(F)F)n12)[S+](C)[O-]` (centres unmarked) [2-053], in the assay on Monochoria vaginalis, the “C: Monochoria vaginalis (herbicidal effect grade)” value (shortened to “C: Monochoria vaginalis”) is 4 (Herbicidal ratio of 70% or more and less than 90%). The “A: Echinochloa oryzicola Vasing. (herbicidal effect grade)” value in assay [1] is listed as 5 (Herbicidal ratio of 90% or more (almost completely withered)). The “B: Scirpus juncoides (herbicidal effect grade)” value (shortened to “B: Scirpus juncoides”) with Scirpus juncoides is recorded as 5 (Herbicidal ratio of 90% or more (almost completely withered)). Also, the “D (herbicidal effect grade)” value in the assay on Leptochloa chinensis is recorded as 5 (Herbicidal ratio of 90% or more (almost completely withered)). Further, the “E (herbicidal effect grade)” value with Cyperus difformis is 5 (Herbicidal ratio of 90% or more (almost completely withered)). Moreover, the “H (herbicidal effect grade)” value in assay [2] is given as 5 (Herbicidal ratio of 90% or more (almost completely withered)).

In the case of `Cn1nnnc1NC(=O)c1ccc(C(F)(F)F)n2c(N3CCOCC3)nnc12` [2-075], the “C: Monochoria vaginalis” value with Monochoria vaginalis is listed as 5 (Herbicidal ratio of 90% or more (almost completely withered)). In addition, in assay [1], the “A: Echinochloa oryzicola Vasing. (herbicidal effect grade)” value is given as 5 (Herbicidal ratio of 90% or more (almost completely withered)). For the same molecule, the “B: Scirpus juncoides” value with Scirpus juncoides is listed as 5 (Herbicidal ratio of 90% or more (almost completely withered)). In addition, the “D (herbicidal effect grade)” value with Leptochloa chinensis is 5 (Herbicidal ratio of 90% or more (almost completely withered)). Also, the “E (herbicidal effect grade)” value in the assay with Cyperus difformis is recorded as 5 (Herbicidal ratio of 90% or more (almost completely withered)). Moreover, the “H (herbicidal effect grade)” value in assay [2] is recorded as 5 (Herbicidal ratio of 90% or more (almost completely withered)).

Consider `C#CCSc1nnc2c(C(=O)Nc3nnnn3C)ccc(C(F)(F)F)n12` [2-103], for which the “C (Monochoria vaginalis) herbicidal ratio grade” value in the assay on Monochoria vaginalis was 5 (Herbicidal ratio of 90% or more (almost completely withered)). In assay [1], the “A (Echinochloa oryzicola Vasing.) herbicidal ratio grade” value is given as 5 (Herbicidal ratio of 90% or more (almost completely withered)). Also, the “B (Scirpus juncoides) herbicidal ratio grade” value with Scirpus juncoides was 4 (Herbicidal ratio of 70% or more and less than 90%). The “D (herbicidal effect grade)” value with Leptochloa chinensis is listed as 5 (Herbicidal ratio of 90% or more (almost completely withered)). In assay [2], the “H (herbicidal effect grade)” value was 5 (Herbicidal ratio of 90% or more (almost completely withered)).

Regarding `Cn1nnnc1NC(=O)c1ccc(C(F)(F)F)n2c(CO)nnc12` [2-108], the “C (Monochoria vaginalis) herbicidal ratio grade” value in the assay with Monochoria vaginalis was 2 (Herbicidal ratio of 20% or more and less than 40%). For the same molecule, the “A (Echinochloa oryzicola Vasing.) herbicidal ratio grade” value in assay [1] is 4 (Herbicidal ratio of 70% or more and less than 90%). For the same molecule, the “B (Scirpus juncoides) herbicidal ratio grade” value with Scirpus juncoides was 3 (Herbicidal ratio of 40% or more and less than 70%). Further, in the assay with Leptochloa chinensis, the “D (herbicidal effect grade)” value is 5 (Herbicidal ratio of 90% or more (almost completely withered)). Besides, in assay [2], the “H (herbicidal effect grade)” value is 4 (Herbicidal ratio of 70% or more and less than 90%).

Turning to `COc1ccc(N(C)c2nnc3c(C(=O)Nc4nnnn4C)ccc(C(F)(F)F)n23)cc1` [2-099], in the assay on Monochoria vaginalis, the “C (Monochoria vaginalis) herbicidal ratio grade” value is 5 (Herbicidal ratio of 90% or more (almost completely withered)). In assay [1], the “A (Echinochloa oryzicola Vasing.) herbicidal ratio grade” value is 5 (Herbicidal ratio of 90% or more (almost completely withered)). Further, the “B (Scirpus juncoides) herbicidal ratio grade” value in the assay with Scirpus juncoides is 4 (Herbicidal ratio of 70% or more and less than 90%). In addition, the “D (herbicidal effect grade)” value in the assay on Leptochloa chinensis was 5 (Herbicidal ratio of 90% or more (almost completely withered)). Also, in assay [2], the “H (herbicidal effect grade)” value was 5 (Herbicidal ratio of 90% or more (almost completely withered)).

In the case of `CC#Cc1nnc2c(C(=O)Nc3nnnn3C)ccc(C(F)(F)F)n12` [2-106], the “C (Monochoria vaginalis) herbicidal ratio grade” value in the assay on Monochoria vaginalis was 4 (Herbicidal ratio of 70% or more and less than 90%). Also, the “A (Echinochloa oryzicola Vasing.) herbicidal ratio grade” value in assay [1] is given as 5 (Herbicidal ratio of 90% or more (almost completely withered)). Besides, in the assay on Scirpus juncoides, the “B (Scirpus juncoides) herbicidal ratio grade” value is 3 (Herbicidal ratio of 40% or more and less than 70%). Moreover, the “D (herbicidal effect grade)” value with Leptochloa chinensis was 2 (Herbicidal ratio of 20% or more and less than 40%). For the same molecule, in assay [2], the “H (herbicidal effect grade)” value was 1 (Herbicidal ratio of 5% or more and less than 20%).

Regarding `Cn1nnnc1NC(=O)c1ccc(C(F)(F)F)n2c(C3(C)CC3(Cl)Cl)nnc12` (centres unmarked) [2-110], the “C (Monochoria vaginalis) herbicidal ratio grade” value in the assay with Monochoria vaginalis was 5 (Herbicidal ratio of 90% or more (almost completely withered)). Also, in assay [1], the “A (Echinochloa oryzicola Vasing.) herbicidal ratio grade” value is recorded as 5 (Herbicidal ratio of 90% or more (almost completely withered)). Moreover, in the assay with Scirpus juncoides, the “B (Scirpus juncoides) herbicidal ratio grade” value is listed as 5 (Herbicidal ratio of 90% or more (almost completely withered)). In addition, the “D (herbicidal effect grade)” value in the assay with Leptochloa chinensis is on record as 5 (Herbicidal ratio of 90% or more (almost completely withered)). Further, in assay [2], the “H (herbicidal effect grade)” value is listed as 5 (Herbicidal ratio of 90% or more (almost completely withered)).

For `COc1ccc(N(C)c2nnc3c(C(=O)Nc4nnco4)ccc(C(F)(F)F)n23)cc1` [1-171], the “C: Monochoria vaginalis” value in the assay on Monochoria vaginalis was 4 (Herbicidal ratio of 70% or more and less than 90%). The “A: Echinochloa oryzicola Vasing. (herbicidal effect grade)” value in assay [1] is on record as 5 (Herbicidal ratio of 90% or more (almost completely withered)). Also, the “B: Scirpus juncoides” value in the assay with Scirpus juncoides is 4 (Herbicidal ratio of 70% or more and less than 90%). Besides, the “D (herbicidal effect grade)” value in the assay with Leptochloa chinensis was 4 (Herbicidal ratio of 70% or more and less than 90%). In addition, the “H (herbicidal effect grade)” value in assay [2] was 4 (Herbicidal ratio of 70% or more and less than 90%).

Regarding `CC(=O)OCc1nnc2c(C(=O)Nc3nnnn3C)ccc(C(F)(F)F)n12` [2-107], the “C (Monochoria vaginalis) herbicidal ratio grade” value in the assay with Monochoria vaginalis was 2 (Herbicidal ratio of 20% or more and less than 40%). Also, the “A (Echinochloa oryzicola Vasing.) herbicidal ratio grade” value in assay [1] is 2 (Herbicidal ratio of 20% or more and less than 40%). Besides, in the assay with Scirpus juncoides, the “B (Scirpus juncoides) herbicidal ratio grade” value was 3 (Herbicidal ratio of 40% or more and less than 70%). Moreover, the “D (herbicidal effect grade)” value in the assay on Leptochloa chinensis is recorded as 5 (Herbicidal ratio of 90% or more (almost completely withered)). Moreover, in assay [2], the “H (herbicidal effect grade)” value was 4 (Herbicidal ratio of 70% or more and less than 90%).

Consider `Cc1nnc(NC(=O)c2ccc(C(F)(F)F)n3nc(C(C)C)nc23)o1` [7-001], for which the “C (Monochoria vaginalis) herbicidal ratio grade” value in the assay on Monochoria vaginalis is 4 (Herbicidal ratio of 70% or more and less than 90%). In addition, the “A (Echinochloa oryzicola Vasing.) herbicidal ratio grade” value in assay [1] is listed as 0 (Herbicidal ratio of 5% or less (almost no effect)). In addition, the “B (Scirpus juncoides) herbicidal ratio grade” value in the assay on Scirpus juncoides is 2 (Herbicidal ratio of 20% or more and less than 40%). Further, the “D (herbicidal effect grade)” value in the assay on Leptochloa chinensis was 2 (Herbicidal ratio of 20% or more and less than 40%). Further, in assay [2], the “H (herbicidal effect grade)” value was 1 (Herbicidal ratio of 5% or more and less than 20%).

Regarding `C=CCSc1nnc2c(C(=O)Nc3nnnn3C)ccc(C(F)(F)F)n12` [2-102], the “C (Monochoria vaginalis) herbicidal ratio grade” value in the assay on Monochoria vaginalis is 4 (Herbicidal ratio of 70% or more and less than 90%). Further, in assay [1], the “A (Echinochloa oryzicola Vasing.) herbicidal ratio grade” value is 5 (Herbicidal ratio of 90% or more (almost completely withered)). Besides, the “B (Scirpus juncoides) herbicidal ratio grade” value with Scirpus juncoides was 5 (Herbicidal ratio of 90% or more (almost completely withered)). The “D (herbicidal effect grade)” value in the assay with Leptochloa chinensis is 4 (Herbicidal ratio of 70% or more and less than 90%). Also, in assay [2], the “H (herbicidal effect grade)” value is 5 (Herbicidal ratio of 90% or more (almost completely withered)).

For `C=CCN(C)c1nnc2c(C(=O)Nc3nnnn3C)ccc(C(F)(F)F)n12` [2-100], the “C (Monochoria vaginalis) herbicidal ratio grade” value in the assay on Monochoria vaginalis is 5 (Herbicidal ratio of 90% or more (almost completely withered)). For the same molecule, in assay [1], the “A (Echinochloa oryzicola Vasing.) herbicidal ratio grade” value is 5 (Herbicidal ratio of 90% or more (almost completely withered)). Also, the “B (Scirpus juncoides) herbicidal ratio grade” value in the assay on Scirpus juncoides is listed as 5 (Herbicidal ratio of 90% or more (almost completely withered)). The “D (herbicidal effect grade)” value with Leptochloa chinensis is 5 (Herbicidal ratio of 90% or more (almost completely withered)). In addition, in assay [2], the “H (herbicidal effect grade)” value is recorded as 5 (Herbicidal ratio of 90% or more (almost completely withered)).

Regarding `COCCSc1nnc2c(C(=O)Nc3nnnn3C)ccc(C(F)(F)F)n12` [2-101], the “C (Monochoria vaginalis) herbicidal ratio grade” value with Monochoria vaginalis is reported as 5 (Herbicidal ratio of 90% or more (almost completely withered)). Also, in assay [1], the “A (Echinochloa oryzicola Vasing.) herbicidal ratio grade” value is 5 (Herbicidal ratio of 90% or more (almost completely withered)). Further, in the assay on Scirpus juncoides, the “B (Scirpus juncoides) herbicidal ratio grade” value is recorded as 5 (Herbicidal ratio of 90% or more (almost completely withered)). For the same molecule, the “D (herbicidal effect grade)” value in the assay on Leptochloa chinensis is given as 5 (Herbicidal ratio of 90% or more (almost completely withered)). The “H (herbicidal effect grade)” value in assay [2] was 5 (Herbicidal ratio of 90% or more (almost completely withered)).

As for `C=CCN(C)c1nnc2c(C(=O)Nc3nnco3)ccc(C(F)(F)F)n12` [1-172], the “C: Monochoria vaginalis” value in the assay on Monochoria vaginalis was 3 (Herbicidal ratio of 40% or more and less than 70%). Moreover, the “A: Echinochloa oryzicola Vasing. (herbicidal effect grade)” value in assay [1] is 5 (Herbicidal ratio of 90% or more (almost completely withered)). Further, the “B: Scirpus juncoides” value in the assay with Scirpus juncoides was 4 (Herbicidal ratio of 70% or more and less than 90%). Besides, the “D (herbicidal effect grade)” value in the assay with Leptochloa chinensis is listed as 5 (Herbicidal ratio of 90% or more (almost completely withered)). For the same molecule, the “H (herbicidal effect grade)” value in assay [2] is 5 (Herbicidal ratio of 90% or more (almost completely withered)).

`CCOC(=O)Cc1nnc2c(C(=O)Nc3nnnn3C)ccc(C(F)(F)F)n12` [2-040]: the “C: Monochoria vaginalis” value in the assay with Monochoria vaginalis is 4 (Herbicidal ratio of 70% or more and less than 90%). Further, in assay [1], the “A: Echinochloa oryzicola Vasing. (herbicidal effect grade)” value was 4 (Herbicidal ratio of 70% or more and less than 90%). In addition, in the assay on Scirpus juncoides, the “B: Scirpus juncoides” value was 4 (Herbicidal ratio of 70% or more and less than 90%). Further, in the assay on Cyperus difformis, the “E (herbicidal effect grade)” value is reported as 5 (Herbicidal ratio of 90% or more (almost completely withered)). Besides, in assay [2], the “H (herbicidal effect grade)” value was 4 (Herbicidal ratio of 70% or more and less than 90%).
